Laboratory results reported in patent US11377469B2, “CD73 inhibitors” (ORIC Pharmaceuticals, Inc., priority 2017, dated 2022).

What follows are molecules tested against CD73 (Homo sapiens (Human), UniProt P21589) (assay: Biochemical Assay (CD73 inhibition, AMP hydrolysis, Malachite Green readout)). Conditions: CD73 0.3208 nM, AMP 15 μM, Tris-HCl pH 7.4, Malachite Green absorbance.
Sequence of CD73 (P21589 27-574): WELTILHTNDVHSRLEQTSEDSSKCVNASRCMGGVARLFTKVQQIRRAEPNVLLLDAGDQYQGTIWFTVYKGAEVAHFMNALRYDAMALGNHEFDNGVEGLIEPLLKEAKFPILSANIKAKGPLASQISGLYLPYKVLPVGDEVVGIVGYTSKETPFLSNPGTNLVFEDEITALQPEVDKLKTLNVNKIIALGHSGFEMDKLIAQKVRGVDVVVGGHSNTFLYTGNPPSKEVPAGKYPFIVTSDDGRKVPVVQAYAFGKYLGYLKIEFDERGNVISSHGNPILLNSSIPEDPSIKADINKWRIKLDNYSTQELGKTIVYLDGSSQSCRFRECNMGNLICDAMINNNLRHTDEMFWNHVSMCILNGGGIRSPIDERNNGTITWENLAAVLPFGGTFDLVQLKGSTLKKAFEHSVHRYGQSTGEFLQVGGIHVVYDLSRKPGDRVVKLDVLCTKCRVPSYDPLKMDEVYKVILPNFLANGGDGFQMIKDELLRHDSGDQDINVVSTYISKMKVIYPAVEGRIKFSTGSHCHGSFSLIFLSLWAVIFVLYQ

| Molecule | IC50 [nM] |
| --- | --- |
| CC(C)(O)c1nc(NC2CCCC2)c2cnn([C@@H]3O[C@H](COCP(=O)(O)O)[C@@H](O)[C@H]3O)c2n1 [Example 132, ((((2R,3S,4R,5R)-5-(4-(cyclopentylamino)-6-(2-hydroxypropan-2-yl)-1H-pyrazolo[3,4-d]pyrimidin-1-yl)-3,4-dihydroxytetrahydrofuran-2-yl)methoxy)methyl)phosphonic acid] | > 1000 |
| C[C@@H]1CCC[C@@H]1Nc1nc(Cl)nc2c1cnn2[C@@H]1O[C@H](CS(=O)(=O)CP(=O)(O)O)[C@@H](O)[C@H]1O [Example 135, (((((2S,3S,4R,5R)-5-(6-chloro-4-(((1S,2R)-2-methylcyclopentyl)amino)-1H-pyrazolo[3,4-d]pyrimidin-1-yl)-3,4-dihydroxytetrahydrofuran-2-yl)methyl)sulfonyl)methyl)phosphonic acid] | ≤ 500 |
| O=P(O)(O)COC[C@H]1O[C@@H](n2ccc3c(NC4CCCC4)nc(Cl)nc32)[C@H](O)[C@@H]1O [Example 137, ((((2R,3S,4R,5R)-5-(2-chloro-4-(cyclopentylamino)-7H-pyrrolo[2,3-d]pyrimidin-7-yl)-3,4-dihydroxytetrahydrofuran-2-yl)methoxy)methyl)phosphonic acid] | ≤ 500 |
| N#CC1(CNc2nc(Cl)nc3c2cnn3[C@@H]2O[C@H](COCP(=O)(O)O)[C@@H](O)[C@H]2O)CC1 [Example 138, ((((2R,3S,4R,5R)-5-(6-chloro-4-(((1-cyanocyclopropyl)methyl)amino)-1H-pyrazolo[3,4-d]pyrimidin-1-yl)-3,4-dihydroxytetrahydrofuran-2-yl)methoxy)methyl)phosphonic acid] | ≤ 500 |
| ((((1R,2R,3S,4R)-4-(5-Chloro-7-(((R)-2,3-dihydro-1H-inden-1-yl)amino)-3H-[1,2,3]triazolo[4,5-d]pyrimidin-3-yl)-2,3-dihydroxycyclopentyl)methoxy)methyl)phosphonic acid [Example 23] | ≤ 500 |
| ((((2R,3S,4R,5R)-5-(5-chloro-7-((3- chlorobenzyl)pamino)-3H[1,2,3]triazolo[4,5- d]pyrimidin-3-yl)-3,4- dihydroxytetrahydrofuran-2- yl)methoxy)methyl)phosphonic acid [Example 24] | ≤ 500 |

Results, then the molecule that gave them:

| IC50 [nM] | Molecule |
| --- | --- |
| ≤ 500 | O=P(O)(O)CS(=O)(=O)C[C@H]1O[C@@H](n2ncc3c(NCc4ccc(Cl)cc4)nc(Cl)nc32)[C@H](O)[C@@H]1O [Example 127, (((((2S,3S,4R,5R)-5-(6-chloro-4-((4-chlorobenzyl)amino)-1H-pyrazolo[3,4-d]pyrimidin-1-yl)-3,4-dihydroxytetrahydrofuran-2-yl)methyl)sulfonyl)methyl)phosphonic acid] |
| ≤ 500 | CC1CCCC1Nc1nc(Cl)nc2c1cnn2[C@@H]1O[C@H](CS(=O)(=O)CP(=O)(O)O)[C@@H](O)[C@H]1O (stereo partly drawn) [Example 128, (((((2S,3S,4R,5R)-5-(6-chloro-4-((2-methylcyclopentyl)amino)-1H-pyrazolo[3,4-d]pyrimidin-1-yl)-3,4-dihydroxytetrahydrofuran-2-yl)methyl)sulfonyl)methyl)phosphonic acid] |
| ≤ 500 | C[C@H](Nc1nc(Cl)nc2c1cnn2[C@@H]1O[C@H](CS(=O)(=O)CP(=O)(O)O)[C@@H](O)[C@H]1O)c1ccccc1Cl [Example 129, (((((2S,3S,4R,5R)-5-(6-chloro-4-(((S)-1-(2-chlorophenyl)ethyl)amino)-1H-pyrazolo[3,4-d]pyrimidin-1-yl)-3,4-dihydroxytetrahydrofuran-2-yl)methyl)sulfonyl)methyl)phosphonic acid] |
| ≤ 500 | O=P(O)(O)CS(=O)(=O)C[C@H]1O[C@@H](n2nnc3c(N[C@H]4CCc5ccccc54)nc(Cl)nc32)[C@H](O)[C@@H]1O [Example 130, (((((2S,3S,4R,5R)-5-(5-chloro-7-(((S)-2,3-dihydro-1H-inden-1-yl)amino)-3H-[1,2,3]triazolo[4,5-d]pyrimidin-3-yl)-3,4-dihydroxytetrahydrofuran-2-yl)methyl)sulfonyl)methyl)phosphonic acid] |
| ≤ 500 | COCCN(c1nc(Cl)nc2c1cnn2[C@@H]1O[C@H](CS(=O)(=O)CP(=O)(O)O)[C@@H](O)[C@H]1O)C1CCCC1 [Example 133] |
| ≤ 500 | C[C@H]1CCC[C@H]1Nc1nc(Cl)nc2c1cnn2[C@@H]1O[C@H](CS(=O)(=O)CP(=O)(O)O)[C@@H](O)[C@H]1O [Example 134, (((((2S,3S,4R,5R)-5-(6-chloro-4-(((1R,2S)-2-methylcyclopentyl)amino)-1H-pyrazolo[3,4-d]pyrimidin-1-yl)-3,4-dihydroxytetrahydrofuran-2-yl)methyl)sulfonyl)methyl)phosphonic acid] |
